The values below come from ChEMBL document CHEMBL1201862, “PubChem BioAssay data set” (2004).

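Following 48 hours of exposure in 96-well plates, responses at five concentrations were used to interpolate endpoints linearly. GI50 is the concentration that inhibits growth by half.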 Calls of active or inactive are those of the source. No stated cut-off is given here; in the data, active = GI50 up to about 1.1 µM and inactive = higher.

Some test systems named below: EKVX; SR; ACHN; HCT-116; UACC-62; OVCAR-4; U-251; CCRF-CEM; NCI-H522; MCF7; SNB-19; OVCAR-3; KM12; NCI-H226; HCC 2998; HL-60; RPMI-8226; COLO 205; NCI/ADR-RES; HOP-92.
Holding throughout (assay): NCI-60 cell line screen, 48 h

For the compound `COc1cc(C2c3cc4c(cc3OC(NN)C2C)OCO4)cc(OC)c1OC` (stereo not given), the GI50 in the test with EKVX was 10.2 µM (inactive); in the test on SR, 0.287 µM (active); in the test with ACHN, 1.78 µM (inactive); with HCT-116, 0.473 µM (active); in the test on UACC-62 it was 0.495 µM (active); with OVCAR-4 it was 23.6 µM (inactive). Besides, the GI50 with U-251 is 0.403 µM (active); with CCRF-CEM, 0.405 µM (active); in the test on NCI-H522, 0.869 µM (active); in the test with MCF7 it was 0.443 µM (active); in the test with SNB-19, 0.813 µM (active); with OVCAR-3, 0.265 µM (active). Moreover, the GI50 in the test on KM12 was 0.466 µM (active); in the test with NCI-H226, 0.979 µM (active); in the test on HCC 2998, 0.536 µM (active); with HL-60, 0.323 µM (active); in the test with RPMI-8226, 0.289 µM (active); in the test with COLO 205, 0.575 µM (active). The GI50 in the test with NCI/ADR-RES was 1.06 µM (active); in the test with HOP-92, 2.04 µM (inactive).
In the case of `CN(C)CCCc1c[nH]c2ccccc12`, the GI50 with EKVX, in the test with SR, in the test on ACHN, in the test with HCT-116, with UACC-62 and in the test on OVCAR-4 was > 100 µM (inactive) throughout. For the same compound, the GI50 with U-251, in the test on CCRF-CEM, with NCI-H522, in the test with MCF7, in the test on SNB-19 and in the test on OVCAR-3 was > 100 µM (inactive) in each case. For the same compound, the GI50 with KM12, with NCI-H226, in the test with HCC 2998, in the test with HL-60, in the test with RPMI-8226 and in the test with COLO 205 was > 100 µM (inactive) throughout. The GI50 in the test on NCI/ADR-RES and with HOP-92 was > 100 µM (inactive) throughout.
With `CC(=O)Nc1ccc(N2C(=O)/C(=C\c3cccc(Oc4ccccc4)c3)SC2c2ccccc2)cc1` (stereo not given), the GI50 was 42.7 µM (inactive) with EKVX; 21 µM (inactive) in the test with SR; 71 µM (inactive) in the test with ACHN; 18.1 µM (inactive) in the test on HCT-116; 22.4 µM (inactive) in the test with UACC-62; 32.4 µM (inactive) in the test with OVCAR-4. Also, the GI50 was 14.7 µM (inactive) in the test with U-251; 17.3 µM (inactive) with CCRF-CEM; 23.2 µM (inactive) with NCI-H522; 21 µM (inactive) with MCF7; 19.8 µM (inactive) in the test on SNB-19; 25.5 µM (inactive) in the test on OVCAR-3. The GI50 with KM12 is 24.4 µM (inactive); in the test on NCI-H226, 22 µM (inactive); with HCC 2998, > 100 µM (inactive); in the test on HL-60, 25.4 µM (inactive); in the test with RPMI-8226, 24.7 µM (inactive); in the test with COLO 205 it was 70.3 µM (inactive). The GI50 is 29.5 µM (inactive) in the test on NCI/ADR-RES and 16.6 µM (inactive) in the test on HOP-92.
As for `CC[P+](c1ccccc1)(N(C)C)N(C)C`, the GI50 in the test on EKVX, with SR, in the test with ACHN, in the test on HCT-116, with UACC-62 and with OVCAR-4 was > 100 µM (inactive) each time. Also, the GI50 with U-251 was 53.8 µM (inactive); in the test with CCRF-CEM, > 100 µM (inactive); in the test with NCI-H522, 89.5 µM (inactive); in the test on MCF7, > 100 µM (inactive); with SNB-19, > 100 µM (inactive); in the test on OVCAR-3 it was > 100 µM (inactive). The GI50 with KM12 was > 100 µM (inactive); with NCI-H226 it was 59.8 µM (inactive); in the test with HCC 2998 it was > 100 µM (inactive); with HL-60, > 100 µM (inactive); in the test on RPMI-8226 it was 71.9 µM (inactive); with COLO 205 it was > 100 µM (inactive). In addition, the GI50 in the test on NCI/ADR-RES is > 100 µM (inactive); in the test on HOP-92, 38.9 µM (inactive).
As to `COc1c(O)c2ccccc2c2cc(O)ccc12`, the GI50 in the test with EKVX is 18.1 µM (inactive); in the test on SR, 12.4 µM (inactive); in the test with ACHN, 3.55 µM (inactive); with HCT-116 it was 4.53 µM (inactive); in the test with UACC-62, 2.67 µM (inactive); in the test on OVCAR-4, 6.56 µM (inactive). Also, the GI50 was 5.22 µM (inactive) in the test with U-251; 6.24 µM (inactive) in the test with CCRF-CEM; 5.4 µM (inactive) in the test on NCI-H522; 2.39 µM (inactive) in the test with MCF7; 13.6 µM (inactive) with SNB-19; 8.81 µM (inactive) with OVCAR-3. For the same compound, the GI50 is 11.6 µM (inactive) with KM12; 13.6 µM (inactive) in the test on NCI-H226; 17.3 µM (inactive) in the test with HCC 2998; 2.86 µM (inactive) with HL-60; 7.21 µM (inactive) in the test with RPMI-8226; 16 µM (inactive) in the test on COLO 205. Moreover, the GI50 with NCI/ADR-RES was 6.98 µM (inactive); with HOP-92, 10.6 µM (inactive).
For `Cc1ccc(-c2nc3cc([N+](=O)[O-])ccc3[nH]2)cc1`, the GI50 in the test with EKVX is 51.6 µM (inactive); with SR, 70.8 µM (inactive); in the test with ACHN, 53 µM (inactive); in the test on HCT-116 it was 89.9 µM (inactive); in the test with UACC-62 it was > 100 µM (inactive); with OVCAR-4, 81.8 µM (inactive). Moreover, the GI50 with U-251 was > 100 µM (inactive); in the test on CCRF-CEM, 39.6 µM (inactive); with NCI-H522 it was 41.7 µM (inactive); with MCF7, > 100 µM (inactive); in the test on SNB-19, > 100 µM (inactive); in the test on OVCAR-3 it was 67.5 µM (inactive). In addition, the GI50 is 54 µM (inactive) in the test on KM12; > 100 µM (inactive) in the test with NCI-H226; 43.4 µM (inactive) in the test on HCC 2998; 45.3 µM (inactive) with HL-60; 43.1 µM (inactive) with RPMI-8226; 72.9 µM (inactive) with COLO 205. In addition, the GI50 in the test on NCI/ADR-RES was 40.8 µM (inactive); with HOP-92 it was > 100 µM (inactive).
